What was measured:
[1] = system: isolated porcine aortic adventitia; experiment: Uniaxial tensile measurements on isolated porcine aortic adventitia, irradiated vs non-irradiated; settings: 0.1% w/v in saline, UV-A 365 nm, 45 mW/cm^2, 10 minutes, both sides, n=30
Procedure: Twenty-five porcine aortas from the abdominal region were used in this study, sourced from an abattoir. The aorta specimens were processed by first removing the extraneous adipose and loose connective tissue debris from the external surface using surgical scissors. One cut was then performed along the longitudinal axis of each aortic tube, in order to obtain flat rectangular sheets. A surgical scalpel was used to make an initial cornerwise-interstitial incision between adventitia and media layers, and the adventitial layer was carefully dissected and peeled off by hand. […] The irradiance at the exposure site was monitored with the radiometer Dymax ACCU-CAL 50 (Dymax Corp., Torrington, CT, USA). […]
An Instron Materials Testing System Model #5943 (Instron, Norwood, MA, USA), equipped with a 50-N load cell, was used to measure uniaxially the tensile properties of isolated adventitia specimens (n=30), prior to and after irradiation. […] Strips (1 cm×3 cm) were cut, and their thickness and width were measured with a digital caliper (Digimax Global Inc., Toronto, Canada). […] The values for Young's moduli were computed from the recorded stress-strain plots in the linear region.
Irradiation was conducted in the presence of a solution of riboflavin 5′-phosphate monosodium salt in saline in accordance with the procedure of Example 1. The results were expressed as mean values±standard error of the mean. […]

[2] = system: isolated porcine aortic adventitia subjected to collagenase; experiment: Uniaxial tensile testing of enzymatically degraded (collagenolysis) isolated porcine aortic adventitia; settings: collagenase 20 U/mL, 8 or 20 hours, UV-A 365 nm, 45 mW/cm^2, 10 minutes
Procedure: An Instron Materials Testing System Model #5943 (Instron, Norwood, MA, USA), equipped with a 50-N load cell, was used to measure uniaxially the tensile properties of isolated adventitia specimens (n=30), prior to and after irradiation. Irradiation was conducted in the presence of a solution of riboflavin 5′-phosphate monosodium salt in saline in accordance with the procedure of Example 1. Before measurements, each specimen was soaked in phosphate buffered saline (PBS) for at least 1 hour at room temperature. Strips (1 cm×3 cm) were cut, and their thickness and width were measured with a digital caliper (Digimax Global Inc., Toronto, Canada). Thirty measurements for specimens in each set of samples (non-irradiated and irradiated) were carried out along the longitudinal direction at a set gauge distance of 16 mm and a speed of 10 mm/min. The values for Young's moduli were computed from the recorded stress-strain plots in the linear region.
Thirty porcine adventitial specimens were isolated and exposed to UV-A radiation as described in Example 1. Irradiation was conducted in the presence of a solution of riboflavin 5′-phosphate monosodium salt in saline in accordance with the procedure of Example 1. Non-irradiated and irradiated adventitial specimens, as sets of 10 pieces each (5 cm×3 cm), were soaked in saline for 1 hour with gentle shaking, and then placed into the wells of 6-well plates. A solution containing 20 U/mL (˜0.08 mg/mL) collagenase was prepared in Tris buffer (0.05 M, pH 7.4), which also contained calcium chloride (10 mM) and sodium azide (0.02%). To each well, 5 mL of this solution was added to cover the samples. The well plates were placed in an orbital shaker and shaken at 160 rpm for either 8 hours or 20 hours at 37° C. […]
The three sets of adventitial specimens designated as (1), (2) and (3) in Example 5 were evaluated by uniaxial tensile testing following the procedure described in Example 2. […]

[3] = system: isolated porcine aortic adventitia; experiment: Biaxial tensile measurements on isolated porcine aortic adventitia; settings: 25% stretch, UV-A 365 nm, 45 mW/cm^2, 10 minutes, n=23
Procedure: Twenty-three porcine aortas from the abdominal region were used in this study and processed initially as described in Example 1. Irradiation was conducted in the presence of a solution of riboflavin 5′-phosphate monosodium salt in saline in accordance with the procedure of Example 1. The isolated adventitial specimens were then cut into squares of 14 mm×14 mm, and thickness was measured with a digital caliper at three spots and averaged. The tensile properties were measured and recorded biaxially in the CS BioTester™ 5000 biotesting system (CellScale Biomaterials Testing, Waterloo, ON, Canada), equipped with two 2.5-N load cells, using a set of four BioRakes™ that consisted each of 5 tungsten tines spaced evenly. All samples were submerged in a temperature-controlled bath containing PBS at 37° C., and tested by stretching the gripped area (11 mm×11 mm) to 25% of total stretch, at a rate of 1%/s. The samples were preconditioned for 10 cycles, and the tenth cycle was used for subsequent analysis. Assuming that tissue was incompressible and had negligible shear components, the Cauchy stress (σ) was determined with the equations: […]
In these equations, F is the measured load, λ is the stretch, X is the initial length, T is the averaged initial thickness of the tissue sample. […] The stretch was calculated as follows: […]
These characteristics were evaluated for 25% stretch (strain). […]

Cc1cc2nc3c(=O)[nH]c(=O)nc-3n(C[C@H](O)[C@H](O)[C@H](O)COP(=O)([O-])O)c2cc1C.[Na+] [riboflavin 5′-phosphate monosodium salt]
Young's modulus (stiffness), difference between non-irradiated and irradiated specimens ([1]; p=0.0012): statistically significant | ultimate stress (maximum load at the time of rupture), difference between non-irradiated and irradiated specimens ([1]; p=0.0015): statistically significant | Young's modulus (stiffness) vs degradation time, samples first irradiated then subjected to collagenolysis (I/D) compared with D and D/I ([2]; 37° C., n=30): highest | ultimate stress (strength) vs degradation time, samples first irradiated then subjected to collagenolysis (I/D) compared with D and D/I ([2]; 37° C., n=30): highest | statistical differences between degraded non-irradiated samples (D) and those irradiated after degradation (D/I), modulus and stress ([2]; p~0.2-0.5): low significance | Cauchy stress, difference between non-irradiated and irradiated specimens ([3]; circumferential (p=1.4×10^−3) and longitudinal (p=5.3×10^−4)): high level of statistical significance | tangent modulus (stiffness), difference between non-irradiated and irradiated specimens ([3]; circumferential (p=6.8×10^−5) and longitudinal (p=7.1×10^−5)): high level of statistical significance

Source: patent publication US20240148940A1, “METHODS OF INHIBITION” (Queensland Eye Institute Foundation, priority 2022, published 2024)
